Laboratory results as given in patent US20260365670A1, “EGFR INHIBITORS AND USES THEREOF” (DIZAL (JIANGSU) PHARMACEUTICAL CO., LTD., priority 2022, published 2026).
Where two headings read alike, the source gives them in different places.

Experiments:
EGFR L858R = target: T1, EGFR L858R (Homo sapiens, UniProt P00533, L858R); assay: Inhibition of EGFR L858R biochemical enzymatic activity (HTRF); settings: 1 mM ATP, 1 h, room temperature, read-out: IC50 (nM) @L858R
T1 construct: purchased Carna Bio
Outline: (§1)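 Each enzyme was first added to plates holding compound. The reaction was then started with ATP (1 mM) and peptide substrate (1 μM). It was stopped after 1 h at room temperature with EDTA detection reagents and read at 615/665 nm to derive IC50s.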

PC-9 = assay: Cell proliferation assay, PC-9 cells (CellTiter-Glo, 72 hours); assay type: cell-based; settings: PC9 cells, CellTiter-Glo, read-out: PC9 GI50
Outline: (§2)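 Ba/F3 cells carrying EGFR mutants (5000/well) or PC-9 cells (500/well) in RPMI1640 were dosed with compound series after overnight attachment and grown 72 h. Viability read by CellTiter-Glo, with day-0 counts subtracted; GI50 from curve fits of % proliferation versus DMSO control.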

[1] = target: T2, EGFR[T790M/C797S/d746-750] (Homo sapiens, UniProt P00533, C797S/DEL746-750/T790M); assay: Inhibition of EGFR[T790M/C797S/d746-750] biochemical enzymatic activity (HTRF); settings: EGFR T790M-C797S-Del19, 1 mM ATP, 1 h, room temperature, read-out: IC50 (nM) @T790M - C797S - Del19
T2 construct: purchased Carna Bio
T2 sequence (P00533 with tags, fused parts or gaps DEL746-750/T790M/C797S limits assumed): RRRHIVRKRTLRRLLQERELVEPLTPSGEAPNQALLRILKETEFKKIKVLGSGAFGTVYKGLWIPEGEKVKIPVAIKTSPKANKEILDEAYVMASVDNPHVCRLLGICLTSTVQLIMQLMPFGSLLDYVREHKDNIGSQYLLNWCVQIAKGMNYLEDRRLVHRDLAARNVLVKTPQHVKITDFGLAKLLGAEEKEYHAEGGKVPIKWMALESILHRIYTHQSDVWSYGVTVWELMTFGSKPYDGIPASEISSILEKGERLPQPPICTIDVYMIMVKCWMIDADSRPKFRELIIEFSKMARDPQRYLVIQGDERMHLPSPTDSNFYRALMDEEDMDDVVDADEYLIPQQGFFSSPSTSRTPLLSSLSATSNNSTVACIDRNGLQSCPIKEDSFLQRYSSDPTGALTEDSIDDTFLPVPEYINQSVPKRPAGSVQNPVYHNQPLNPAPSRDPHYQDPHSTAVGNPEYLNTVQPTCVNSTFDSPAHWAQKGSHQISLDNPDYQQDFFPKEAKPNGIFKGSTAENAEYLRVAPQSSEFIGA
Outline: as §1

EGFR Exon19Del/T790M = target: T3, EGFR Exon19Del/T790M (Homo sapiens, UniProt P00533, DEL746-750/T790M); assay: Inhibition of EGFR Exon19Del/T790M biochemical enzymatic activity (HTRF); settings: EGFR Del19-T790M, 1 mM ATP, 1 h, room temperature, read-out: IC50 (nM) @Del19-T790M
T3 construct: purchased Carna Bio
Outline: as §1

EGFR (d746-750 C797S) = target: T4, EGFR (d746-750 C797S) (Homo sapiens, UniProt P00533, C797S/DEL746-750); assay: Inhibition of EGFR (d746-750 C797S) biochemical enzymatic activity (HTRF); settings: EGFR Del19-C797S, 1 mM ATP, 1 h, room temperature, read-out: IC50 (nM) @Del19-C797S
T4 construct: purchased signalchem
T4 sequence (P00533 with tags, fused parts or gaps DEL746-750/C797S limits assumed): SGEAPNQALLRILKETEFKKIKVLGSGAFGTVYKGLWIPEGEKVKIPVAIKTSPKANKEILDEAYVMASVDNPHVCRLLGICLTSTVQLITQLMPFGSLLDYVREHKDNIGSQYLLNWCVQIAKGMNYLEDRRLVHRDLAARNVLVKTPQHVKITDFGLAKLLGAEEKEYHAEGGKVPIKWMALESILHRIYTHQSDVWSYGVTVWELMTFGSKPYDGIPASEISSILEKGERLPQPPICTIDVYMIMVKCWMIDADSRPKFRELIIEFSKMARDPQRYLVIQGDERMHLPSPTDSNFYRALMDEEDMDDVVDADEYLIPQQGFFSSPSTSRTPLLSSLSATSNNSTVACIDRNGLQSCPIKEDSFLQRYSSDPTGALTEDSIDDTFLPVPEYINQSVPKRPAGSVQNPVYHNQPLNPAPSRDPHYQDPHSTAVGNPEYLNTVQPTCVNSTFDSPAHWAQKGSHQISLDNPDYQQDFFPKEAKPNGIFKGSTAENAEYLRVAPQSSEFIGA
Outline: as §1

EGFR L858R/T790M = target: T5, EGFR L858R/T790M (Homo sapiens, UniProt P00533, L858R/T790M); assay: Inhibition of EGFR L858R/T790M biochemical enzymatic activity (HTRF); settings: EGFR L858R-T790M, 1 mM ATP, 1 h, room temperature, read-out: IC50 (nM) @L858R-T790M
T5 construct: purchased Carna Bio
Outline: as §1

EGFR Exon19Del = target: T6, EGFR Exon19Del (Homo sapiens, UniProt P00533, DEL746-750); assay: Inhibition of EGFR Exon19Del biochemical enzymatic activity (HTRF); settings: EGFR Del19, 1 mM ATP, 1 h, room temperature, read-out: IC50 @Del19
T6 construct: purchased Carna Bio
Outline: as §1

EGFR wild type = target: T7, EGFR wild type (Homo sapiens, UniProt P00533); assay: Inhibition of EGFR wild type biochemical enzymatic activity (HTRF); settings: EGFR WT, 1 mM ATP, 1 h, room temperature, read-out: IC50 (nM) @WT
T7 construct: purchased Carna Bio
T7 sequence (P00533 25-1210): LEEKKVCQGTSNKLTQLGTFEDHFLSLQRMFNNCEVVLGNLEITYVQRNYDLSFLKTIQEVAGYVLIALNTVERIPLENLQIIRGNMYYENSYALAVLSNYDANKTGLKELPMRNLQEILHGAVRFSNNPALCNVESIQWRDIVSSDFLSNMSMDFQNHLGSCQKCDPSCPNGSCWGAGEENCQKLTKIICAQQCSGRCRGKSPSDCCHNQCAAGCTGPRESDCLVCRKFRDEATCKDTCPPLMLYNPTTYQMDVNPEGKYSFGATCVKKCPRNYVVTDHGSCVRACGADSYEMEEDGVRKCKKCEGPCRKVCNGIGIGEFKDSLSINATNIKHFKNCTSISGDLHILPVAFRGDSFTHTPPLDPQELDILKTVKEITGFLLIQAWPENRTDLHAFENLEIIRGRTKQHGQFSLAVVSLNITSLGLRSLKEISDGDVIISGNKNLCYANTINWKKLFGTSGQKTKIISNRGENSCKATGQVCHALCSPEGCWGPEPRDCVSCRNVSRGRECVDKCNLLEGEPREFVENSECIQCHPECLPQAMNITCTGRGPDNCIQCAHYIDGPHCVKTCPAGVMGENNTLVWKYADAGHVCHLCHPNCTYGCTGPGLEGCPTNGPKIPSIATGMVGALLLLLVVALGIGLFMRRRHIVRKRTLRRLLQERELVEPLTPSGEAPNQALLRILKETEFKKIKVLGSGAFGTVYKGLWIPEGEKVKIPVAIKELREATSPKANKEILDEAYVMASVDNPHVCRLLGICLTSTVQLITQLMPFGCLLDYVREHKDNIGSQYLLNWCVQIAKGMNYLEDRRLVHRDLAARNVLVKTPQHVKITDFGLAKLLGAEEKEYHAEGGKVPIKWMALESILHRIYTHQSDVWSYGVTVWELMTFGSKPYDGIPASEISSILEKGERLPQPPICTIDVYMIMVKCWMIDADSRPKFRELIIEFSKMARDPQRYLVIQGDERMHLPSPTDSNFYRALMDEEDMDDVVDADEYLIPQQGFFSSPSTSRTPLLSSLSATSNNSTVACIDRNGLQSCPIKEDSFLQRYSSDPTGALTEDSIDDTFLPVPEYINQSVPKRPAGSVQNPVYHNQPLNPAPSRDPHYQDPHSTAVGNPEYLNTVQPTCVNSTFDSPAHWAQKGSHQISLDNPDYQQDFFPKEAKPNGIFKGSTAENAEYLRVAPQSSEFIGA
Outline: as §1

[2] = test system: Ba/F3 cells expressing EGFR mutations; assay: Cell proliferation assay, Ba/F3 cells expressing EGFR mutations (CellTiter-Glo, 72 hours); assay type: cell-based; settings: CellTiter-Glo
Outline: as §2

A-431 = assay: Cell proliferation GI50, A-431 cells (Table 6); assay type: cell-based
EGFR (C797S L858R) = target: T8, EGFR (C797S L858R) (Homo sapiens, UniProt P00533, C797S/L858R); assay: Inhibition of EGFR (C797S L858R) biochemical enzymatic activity (HTRF); settings: EGFR L858-C797S, 1 mM ATP, 1 h, room temperature, read-out: IC50 (nM) @L858-C797S
T8 construct: purchased signalchem
T8 sequence (P00533 25-1210 C797S/L858R): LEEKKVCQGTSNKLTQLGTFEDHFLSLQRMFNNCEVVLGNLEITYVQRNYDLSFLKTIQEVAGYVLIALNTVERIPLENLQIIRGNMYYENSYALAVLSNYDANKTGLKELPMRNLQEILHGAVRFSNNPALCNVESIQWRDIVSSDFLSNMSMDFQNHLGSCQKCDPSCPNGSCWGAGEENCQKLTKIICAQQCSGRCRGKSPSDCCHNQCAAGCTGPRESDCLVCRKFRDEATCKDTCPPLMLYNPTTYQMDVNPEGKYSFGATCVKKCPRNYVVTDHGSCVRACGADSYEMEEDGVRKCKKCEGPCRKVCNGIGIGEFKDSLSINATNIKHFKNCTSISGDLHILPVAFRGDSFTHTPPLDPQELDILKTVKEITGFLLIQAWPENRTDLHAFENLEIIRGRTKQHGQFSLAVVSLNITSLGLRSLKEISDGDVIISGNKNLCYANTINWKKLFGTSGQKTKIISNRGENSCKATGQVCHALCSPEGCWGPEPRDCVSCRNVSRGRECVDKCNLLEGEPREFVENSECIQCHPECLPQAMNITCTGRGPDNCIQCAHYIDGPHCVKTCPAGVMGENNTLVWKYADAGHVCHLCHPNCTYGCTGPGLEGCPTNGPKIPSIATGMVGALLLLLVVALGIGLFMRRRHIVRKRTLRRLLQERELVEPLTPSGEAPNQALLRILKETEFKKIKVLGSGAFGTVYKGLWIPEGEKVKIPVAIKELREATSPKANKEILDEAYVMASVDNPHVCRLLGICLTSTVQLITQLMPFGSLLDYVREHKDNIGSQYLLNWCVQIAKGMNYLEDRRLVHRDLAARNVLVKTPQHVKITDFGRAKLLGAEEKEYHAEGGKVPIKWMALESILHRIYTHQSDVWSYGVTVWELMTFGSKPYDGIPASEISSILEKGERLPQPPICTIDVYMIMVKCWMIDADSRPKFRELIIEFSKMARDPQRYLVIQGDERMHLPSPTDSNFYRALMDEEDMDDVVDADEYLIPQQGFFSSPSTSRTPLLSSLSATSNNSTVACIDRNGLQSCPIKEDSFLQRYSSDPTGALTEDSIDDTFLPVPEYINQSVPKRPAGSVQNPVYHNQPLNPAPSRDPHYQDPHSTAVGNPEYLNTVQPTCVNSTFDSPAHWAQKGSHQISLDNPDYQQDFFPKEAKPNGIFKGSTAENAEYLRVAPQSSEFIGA
Outline: as §1

EGFR[T790M/C797S/L858R] = target: T9, EGFR[T790M/C797S/L858R] (Homo sapiens, UniProt P00533, C797S/L858R/T790M); assay: Inhibition of EGFR[T790M/C797S/L858R] biochemical enzymatic activity (HTRF); settings: EGFR T790M-C797S-L858R, 1 mM ATP, 1 h, room temperature, read-out: IC50 (nM) @T790M- C797S - L858R
T9 construct: purchased Carna Bio
T9 sequence (P00533 25-1210 T790M/C797S/L858R): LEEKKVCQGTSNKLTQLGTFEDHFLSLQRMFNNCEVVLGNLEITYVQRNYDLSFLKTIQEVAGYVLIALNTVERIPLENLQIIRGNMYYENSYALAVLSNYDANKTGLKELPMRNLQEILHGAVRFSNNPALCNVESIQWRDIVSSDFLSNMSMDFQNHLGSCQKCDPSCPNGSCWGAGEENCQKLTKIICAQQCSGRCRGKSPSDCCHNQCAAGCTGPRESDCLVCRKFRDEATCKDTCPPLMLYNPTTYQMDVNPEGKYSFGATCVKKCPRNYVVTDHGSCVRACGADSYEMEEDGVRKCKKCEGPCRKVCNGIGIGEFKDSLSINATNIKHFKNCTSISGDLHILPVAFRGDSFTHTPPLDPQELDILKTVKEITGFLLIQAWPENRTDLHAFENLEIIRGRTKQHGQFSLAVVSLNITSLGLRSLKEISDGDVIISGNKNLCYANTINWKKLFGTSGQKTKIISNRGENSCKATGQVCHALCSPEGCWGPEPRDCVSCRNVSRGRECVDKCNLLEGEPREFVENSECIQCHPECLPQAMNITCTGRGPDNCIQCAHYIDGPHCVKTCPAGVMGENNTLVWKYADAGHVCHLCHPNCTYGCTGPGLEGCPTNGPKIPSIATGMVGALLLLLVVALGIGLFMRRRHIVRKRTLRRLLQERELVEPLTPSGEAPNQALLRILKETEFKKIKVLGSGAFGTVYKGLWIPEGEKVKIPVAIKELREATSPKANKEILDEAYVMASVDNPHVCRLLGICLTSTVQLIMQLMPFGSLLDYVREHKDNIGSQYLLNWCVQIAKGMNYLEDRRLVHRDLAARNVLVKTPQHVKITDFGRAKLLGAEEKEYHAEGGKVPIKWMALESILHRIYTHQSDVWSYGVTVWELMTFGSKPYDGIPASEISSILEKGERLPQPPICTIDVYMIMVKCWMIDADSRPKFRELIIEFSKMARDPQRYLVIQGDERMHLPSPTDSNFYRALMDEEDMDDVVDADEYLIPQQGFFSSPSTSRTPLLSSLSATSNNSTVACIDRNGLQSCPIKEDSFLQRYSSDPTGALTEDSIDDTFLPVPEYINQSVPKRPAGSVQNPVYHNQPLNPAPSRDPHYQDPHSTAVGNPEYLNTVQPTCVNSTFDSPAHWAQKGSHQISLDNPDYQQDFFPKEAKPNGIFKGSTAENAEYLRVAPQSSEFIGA
Outline: as §1

[3] = BaF3 cells, EGFR DEL19-C797S, read-out: DEL19-C797S/BaF3 GI50
[4] = BaF3 cells, EGFR DEL19-T790-C797S, read-out: DEL19-T790-C797S/BaF3 GI50
[5] = BaF3 cells, EGFR L858R, read-out: L858R/BaF3 GI50
[6] = BaF3 cells, EGFR L858R-C797S, read-out: L858R-C797S/BaF3 GI50
[7] = BaF3 cells, EGFR L858R-T790-C797S, read-out: L858R-T790-C797S/BaF3 GI50
[8] = BaF3 cells, EGFR L858R-T790M, read-out: L858R-T790M/BaF3 GI50
[9] = EGFR DEL19-T790M, read-out: DEL19-T790M GI50
[10] = Homo sapiens, A-431, A-431 cells

| IC50 (EGFR L858R) | GI50 (PC-9) | IC50 [1] | IC50 (EGFR Exon19Del/T790M) | IC50 (EGFR (d746-750 C797S)) | IC50 (EGFR L858R/T790M) | IC50 (EGFR Exon19Del) | IC50 (EGFR wild type) | GI50 [2, 3] | GI50 [2, 4] | GI50 [2, 5] | GI50 [2, 6] | GI50 [2, 7] | GI50 [2, 8] | GI50 [2, 9] | GI50 (A-431; A-431 cells) | IC50 (EGFR (C797S L858R)) | IC50 (EGFR[T790M/C797S/L858R]) | GI50 (A-431; [10]) | SMILES |
| --- | --- | --- | --- | --- | --- | --- | --- | --- | --- | --- | --- | --- | --- | --- | --- | --- | --- | --- | --- |
| 21 nM | 29 nM | 3.3 nM | 3.9 nM | 2.4 nM | 4.6 nM | 3.1 nM | 196 nM | 0.77 nM | 13 nM | 14 nM | 16 nM | 31 nM | 40 nM | 14 nM | 1770 nM | 9.8 nM | 4.4 nM | – | CN(C)C1CN(c2ccc3nc4n(c3c2)C23CCC(CN(CCOc5c(cnn5C)-c5cc(cn(C)c5=O)C(=O)N4)C2)C3)CC1F (single isomer, unassigned) [Example A84D, 15,21-Dimethyl-5-[4-fluoro-3-(N,N-dimethylamino)pyrrolidinyl]-23-oxa-2,9,11,15,20,21,26-heptaazaheptacyclo[24.4.1.1^{1,28}.1^{13,17}.0^{2,10}.0^{3,8}.0^{18,22}]tritriaconta-3,5,7,9,13,17(33),18(22),19-octaene-12,16-dione] |
| 11 nM | 12 nM | 2.2 nM | 2.2 nM | 1.6 nM | 3.1 nM | 1.2 nM | 84 nM | 0.5 nM | 1.1 nM | 0.78 nM | 1.6 nM | 1.2 nM | 7.7 nM | 1.3 nM | – | 5.5 nM | 3.1 nM | 969 nM | CN(C)CCN(C)c1ccc2nc3n(c2c1)C12CCC(CN(CCOc4c(cnn4C)-c4cc(cn(C)c4=O)C(=O)N3)C1)C2 (single isomer, unassigned) [Example A85B] |
| 3600 nM | 791 nM | > 5000 nM | > 5000 nM | 573 nM | > 5000 nM | 250 nM | > 5000 nM | 103 nM | 178 nM | 135 nM | 165 nM | 280 nM | 367 nM | 115 nM | 6390 nM | > 5000 nM | > 5000 nM | – | CN(C)CCCN(C)c1ccc2nc3n(c2c1)C12CCC(CN(CCOc4c(cnn4C)-c4cc(cn(C)c4=O)C(=O)N3)C1)C2 (single isomer, unassigned) [Example A89A] |
| 16 nM | 28 nM | 4 nM | 3.8 nM | 2.2 nM | 7.4 nM | 1.9 nM | 134 nM | 0.57 nM | 3.2 nM | 2.2 nM | 3.8 nM | 4.1 nM | 9.2 nM | 2.6 nM | 1700 nM | 11 nM | 5.4 nM | – | CN(C)CCCN(C)c1ccc2nc3n(c2c1)C12CCC(CN(CCOc4c(cnn4C)-c4cc(cn(C)c4=O)C(=O)N3)C1)C2 (single isomer, unassigned) [Example A89B] |
| > 5000 nM | 2100 nM | > 5000 nM | > 5000 nM | 749 nM | > 5000 nM | 1710 nM | > 5000 nM | 128 nM | 393 nM | 540 nM | 249 nM | 721 nM | 977 nM | 321 nM | – | > 5000 nM | > 5000 nM | 4270 nM | COCCN(C)c1ccc2nc3n(c2c1)C12CCC(CN(CCOc4c(cnn4C)-c4cc(cn(C)c4=O)C(=O)N3)C1)C2 (single isomer, unassigned) [Example A90A] |

The next lines start with the molecule.

| SMILES | IC50 (EGFR L858R) | GI50 (PC-9) | IC50 [1] | IC50 (EGFR Exon19Del/T790M) | IC50 (EGFR (d746-750 C797S)) | IC50 (EGFR L858R/T790M) | IC50 (EGFR Exon19Del) | IC50 (EGFR wild type) | GI50 [2, 3] | GI50 [2, 4] | GI50 [2, 5] | GI50 [2, 6] | GI50 [2, 7] | GI50 [2, 8] | GI50 [2, 9] | GI50 (A-431; A-431 cells) | IC50 (EGFR (C797S L858R)) | IC50 (EGFR[T790M/C797S/L858R]) | GI50 (A-431; [10]) |
| --- | --- | --- | --- | --- | --- | --- | --- | --- | --- | --- | --- | --- | --- | --- | --- | --- | --- | --- | --- |
| CN1CCOC2(C1)CN(c1ccc3nc4n(c3c1)C13CCC(CN(CCOc5c(cnn5C)-c5cc(cn(C)c5=O)C(=O)N4)C1)C3)C2 (single isomer, unassigned) [Example A86B] | 16 nM | 26 nM | 8.5 nM | 9.5 nM | 3.9 nM | 12 nM | 4 nM | 110 nM | 0.71 nM | 1.9 nM | 2.4 nM | 5.2 nM | 4.2 nM | 10 nM | 1.2 nM | – | 14 nM | 8.1 nM | 2670 nM |
| Cn1ncc2c1OCCN1CC3CCC(C3)(C1)n1c(nc3ccc(N4CCC(N5CC(F)C5)CC4)cc31)NC(=O)c1cc-2c(=O)n(C)c1 (single isomer, unassigned) [Example A87A] | 4480 nM | 452 nM | 4000 nM | > 5000 nM | 995 nM | > 5000 nM | 842 nM | > 5000 nM | 61 nM | 238 nM | 178 nM | 124 nM | 233 nM | 311 nM | 192 nM | 382 nM | > 5000 nM | > 5000 nM | – |
| Cn1ncc2c1OCCN1CC3CCC(C3)(C1)n1c(nc3ccc(N4CCC(N5CC(F)C5)CC4)cc31)NC(=O)c1cc-2c(=O)n(C)c1 (single isomer, unassigned) [Example A87B] | 9.3 nM | 25 nM | 8.6 nM | 9.5 nM | 4.1 nM | 8.8 nM | 2.8 nM | 36 nM | 0.7 nM | 4 nM | 4.6 nM | 7.9 nM | 7.7 nM | 13 nM | 3.4 nM | 5970 nM | 8.9 nM | 8.7 nM | – |
| CN1CCC2(CC1)CCN(c1ccc3nc4n(c3c1)C13CCC(CN(CCOc5c(cnn5C)-c5cc(cn(C)c5=O)C(=O)N4)C1)C3)C2 (single isomer, unassigned) [Example A88A] | > 5000 nM | 611 nM | > 5000 nM | > 5000 nM | 1160 nM | > 5000 nM | 477 nM | > 5000 nM | 57 nM | 159 nM | 119 nM | 100 nM | 252 nM | 361 nM | 163 nM | 6260 nM | > 5000 nM | > 5000 nM | – |
| CN1CCC2(CC1)CCN(c1ccc3nc4n(c3c1)C13CCC(CN(CCOc5c(cnn5C)-c5cc(cn(C)c5=O)C(=O)N4)C1)C3)C2 (single isomer, unassigned) [Example A88B] | 4.8 nM | 21 nM | 4.6 nM | 4.9 nM | 2.2 nM | 4.9 nM | 2.5 nM | 12 nM | 0.63 nM | 1 nM | 0.84 nM | 3.4 nM | 1.7 nM | 8.8 nM | 1 nM | 2200 nM | 4.2 nM | 2.8 nM | – |
